Key:
[1] = Ara-C 200 mg/kg 2x/week iv; 10 mice/group
Method: Female SCID beige mice (10/group), obtained from Charles River Laboratories (Wilmington, Del.) were used when they were approximately 8-12 weeks old and weighed approximately 20-25 grams. The health of the mice was assessed daily by gross observation and analyses of blood samples taken from sentinel animals housed on shared shelf racks. All animals were allowed to acclimate and recover from any shipping-related stress for a minimum of 72 hours prior to experimental use. Autoclaved water and irradiated food (5058-ms Pico Lab mouse chow, Purina Mills, Richmond, Ind.) were provided ad libitum, and the animals were maintained on a 12 hour light and dark cycle. […]
For increased life span (ILS) assessment, animal body weights were measured two to three times per week, and animals were monitored daily for any clinical signs of toxicity or excessive tumor burden (i.e. hind limb paralysis or morbidity). In addition, progression of disease was monitored by in vivo bioluminescent imaging (BLI) using IVIS® Spectrum system. […] Images were captured by the IVIS® Spectrum system and data were collected and analyzed with Living Image 4.2.0 software (Caliper Life Sciences, Hopkinton, Mass.). Total photon fluxes (ph/s) representing luciferase activity within each fixed region of interest (ROI) covering whole tumors of individual mice were determined. […]

[2] = system: MOLM-13-luc.c4 (AML) human AML cells; experiment: Antitumor efficacy and survival / increase in life span (ILS) in disseminated MOLM-13.luc.c4 AML model; assay type: in vivo, SCID beige mice; details: for tumor burden by BLI photon counts: 5 million cells, treatment from day 3, vs Vehicle-treated control mice (FIG. 1); for Median survival: vehicle control 20.5 days
Method: Female SCID beige mice (10/group), obtained from Charles River Laboratories (Wilmington, Del.) were used when they were approximately 8-12 weeks old and weighed approximately 20-25 grams. The health of the mice was assessed daily by gross observation and analyses of blood samples taken from sentinel animals housed on shared shelf racks. All animals were allowed to acclimate and recover from any shipping-related stress for a minimum of 72 hours prior to experimental use. Autoclaved water and irradiated food (5058-ms Pico Lab mouse chow, Purina Mills, Richmond, Ind.) were provided ad libitum, and the animals were maintained on a 12 hour light and dark cycle. Cages, bedding and water bottles were autoclaved before use and changed weekly. All animal experiments were conducted in accordance with the Guide for the Care and Use of Laboratory Animals, local regulations, and protocols approved by the Roche Animal Care and Use Committee in an AAALAC accredited facility.
Parental MOLM-13 human AML cells were stably transfected with Luc2 lentiviral particles for 24 hrs in the presence of Polybrene (8 ug/ml) and then selected in the presence of Blasticidin for 3 weeks. Subsequently, one clone was selected by single cell plating in the presence of 0.1 mg/mL G418 and was designated MOLM-13.luc.c4. The lentiviral Luc2 expression plasmid was constructed by incorporating Luc2 gene (Promega) in to pLOC lentiviral plasmid backbone (Thermo Fisher Scientific). Luc2 lentiviral particles were prepared by using Trans-Lentiviral Packaging System (Thermo Fisher Scientific) as recommended.
MOLM-13.luc.c4 was maintained with RPMI 1640 with L-glutamine (2 mM) media (GIBCO/Invitrogen, Carlsbad, Calif.) supplemented with 10% heat-inactivated Fetal Bovine Serum (HI-FBS; GIBCO/Invitrogen, Carlsbad, Calif.), and 1% 100 mM sodium pyruvate. Freshly dissociated MOLM13-Luc.c4 cells (1×106 or 5×106) suspended in Phosphate Buffered Saline (PBS) were then intravenously inoculated via the caudal tail vein into female SCID-beige mice.
It was then filtered thru a 0.22 micron filter into a septum sealed vial for intravenous administration. […] Stock cytarabine (Ara-C injection, 100 mg/ml) was diluted in sterile 0.9% sodium chloride to 44 mg/ml according to manufacturer's instructions and dosed at 200 mg/kg iv twice weekly.
Treatment duration was 3 weeks.
For increased life span (ILS) assessment, animal body weights were measured two to three times per week, and animals were monitored daily for any clinical signs of toxicity or excessive tumor burden (i.e. hind limb paralysis or morbidity). In addition, progression of disease was monitored by in vivo bioluminescent imaging (BLI) using IVIS® Spectrum system. For each BLI session, mice received 100 mg/kg D-luciferin (Caliper Life Sciences/Perkin-Elmer) via ip injections and were imaged at 20 min post luciferin injection at either a 5 s or a 10 s exposure time. Images were captured by the IVIS® Spectrum system and data were collected and analyzed with Living Image 4.2.0 software (Caliper Life Sciences, Hopkinton, Mass.). Total photon fluxes (ph/s) representing luciferase activity within each fixed region of interest (ROI) covering whole tumors of individual mice were determined. The actual images of mice are not disclosed herein.
Quantification of bioluminescence allowed for direct longitudinal comparison of tumor burden between treatment groups prior to surrogate death end points being reached. Tumor burden was graphically represented as the mean BLI photon flux+standard error of the mean (SEM), and median survival was determined utilizing Kaplan Meier survival analysis. Statistical analysis of comparisons between groups was analyzed by two-way ANOVA, and post-hoc Bonferroni test (GraphPad Prism, version 4.3). Differences between groups were considered to be significant when the probability value (p) was ≤0.05.

Nc1ccn([C@@H]2O[C@H](CO)[C@@H](O)[C@@H]2O)c(=O)n1 [Ara-C, cytarabine]
Mortality [1]: 0 | tumor burden by BLI photon counts [2]: no difference | % ILS vs. Vehicle control ([2]; Ara-C 200 mg/kg 2x/wk iv): 0% | Median survival ([2]; Ara-C 200 mg/kg 2x/wk iv): 20 days | monotherapy antitumor activity as assessed by tumor burden (BLI) or ILS [2]: lack of monotherapy activity | monotherapy antitumor activity as assessed by tumor burden (BLI) or ILS ([2]; listed as Cytarabine (Ara-C)): lack of antitumor activity

4-{[(2R,3S,4R,5S)-3-(3-Chloro-2-fluoro-phenyl)-4-(4-chloro-2-fluoro-phenyl)-4-cyano-5-(2,2-dimethyl-propyl)-pyrrolidine-2-carbonyl]amino}-3-methoxy-benzoic acid 1-mPEG-carbonyloxy-ethyl ester (mPEG, average MW, ˜2200) [compound I-B]
tumor burden by BLI photon counts [2]: significantly reduced photon counts | % ILS vs. Vehicle control ([2]; Cpd I-B 437 mg/kg q7d iv, p < 0.05 vs vehicle): 37% | % ILS vs. Vehicle control ([2]; Cpd I-B 437 mg/kg q7d iv, p < 0.05 vs vehicle, listed as Cpd I-B): *37% | Median survival ([2]; Cpd I-B 437 mg/kg q7d iv): 28 days
